The results in this text go back to patent US20230374007A1, “COMPOUNDS AND THEIR USE IN TREATING CANCER” (AstraZeneca AB, priority 2020, published 2023).

Test [1] concerns the target T1, cereblon (CRBN)—DNA damage protein 1 (DDB1) complex (Homo sapiens, UniProt Q96SW2).
T1 construct: encoding amino acid residues 1 to 442 (Uniprot Q96SW2); hexahistidine (N); thrombin cleavage site (N); made in house; host or cells: Sf9 insect cells (baculovirus co-infection)
Put plainly: Cereblon HTRF binding assay. The procedure, abridged: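 Biotinylated His-tagged CRBN-DDB1 (0.2 nM, baculovirus-expressed) was combined with 0.2 nM terbium cryptate streptavidin and 2 nM Cy5-lenalidomide probe in 50 mM Tris-HCl pH 7.5, 100 mM NaCl, 1 mM TCEP, 500 μM EDTA, 0.01% Pluronic F127 for 2 h at r.t. HTRF ratio was normalized to plate controls. IC50 came from a Hill fit, given as mean of one or more experiments.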
A general note: TR-FRET usually uses a lanthanide donor and a delayed reading to cut background.

The target in test [2] is T2, endogenous SALL4 protein in Kelly cells (Homo sapiens, UniProt Q9UJQ4).
T2 construct: the endogenous SALL4 protein; endogenous in cells; host or cells: Kelly
Put plainly: Endogenous SALL4 degradation assay (SDS-PAGE). The note with it: 10 μM, 20 h of treatment. The class given is cell-based.

Test [3] has as its target T3, endogenous IKZF1 protein in NB4 cells (Homo sapiens, UniProt Q13422).
T3 construct: the endogenous IKZF1 protein; endogenous in cells; host or cells: NB4
Put plainly: Endogenous Ikaros 1 (IKZF1) degradation assay (SDS-PAGE). The settings on record: 1 μM and 10 μM, 20 h of treatment. It is filed as cell-based.

T1 sequence (Q96SW2 with tags, fused parts or gaps): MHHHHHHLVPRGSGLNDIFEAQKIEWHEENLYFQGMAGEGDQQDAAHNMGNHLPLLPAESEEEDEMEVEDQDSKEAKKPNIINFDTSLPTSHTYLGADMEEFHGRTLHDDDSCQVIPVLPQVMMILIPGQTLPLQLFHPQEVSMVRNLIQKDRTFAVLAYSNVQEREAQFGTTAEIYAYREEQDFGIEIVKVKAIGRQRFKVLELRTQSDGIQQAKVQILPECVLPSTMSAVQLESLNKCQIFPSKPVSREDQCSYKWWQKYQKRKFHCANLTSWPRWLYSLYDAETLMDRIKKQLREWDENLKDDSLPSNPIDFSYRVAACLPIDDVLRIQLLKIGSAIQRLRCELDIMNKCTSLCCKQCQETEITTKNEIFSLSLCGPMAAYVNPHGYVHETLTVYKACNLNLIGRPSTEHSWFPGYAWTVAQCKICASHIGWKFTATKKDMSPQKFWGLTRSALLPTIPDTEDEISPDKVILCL
T3 sequence (Q13422 whole entry): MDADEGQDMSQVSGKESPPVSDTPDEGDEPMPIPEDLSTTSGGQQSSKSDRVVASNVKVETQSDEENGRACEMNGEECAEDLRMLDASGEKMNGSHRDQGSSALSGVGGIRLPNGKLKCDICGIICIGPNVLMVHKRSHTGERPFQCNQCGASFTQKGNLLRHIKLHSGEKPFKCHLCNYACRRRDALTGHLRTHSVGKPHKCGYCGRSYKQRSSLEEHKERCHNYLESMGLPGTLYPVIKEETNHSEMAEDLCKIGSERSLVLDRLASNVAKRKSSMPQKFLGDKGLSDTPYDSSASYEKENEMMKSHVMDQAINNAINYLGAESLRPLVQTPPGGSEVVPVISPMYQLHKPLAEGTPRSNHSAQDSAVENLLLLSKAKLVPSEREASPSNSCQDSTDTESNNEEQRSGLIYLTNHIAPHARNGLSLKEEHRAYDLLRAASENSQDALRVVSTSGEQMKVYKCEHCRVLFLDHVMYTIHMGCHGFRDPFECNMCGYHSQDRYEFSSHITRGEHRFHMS
T2 sequence (Q9UJQ4 whole entry): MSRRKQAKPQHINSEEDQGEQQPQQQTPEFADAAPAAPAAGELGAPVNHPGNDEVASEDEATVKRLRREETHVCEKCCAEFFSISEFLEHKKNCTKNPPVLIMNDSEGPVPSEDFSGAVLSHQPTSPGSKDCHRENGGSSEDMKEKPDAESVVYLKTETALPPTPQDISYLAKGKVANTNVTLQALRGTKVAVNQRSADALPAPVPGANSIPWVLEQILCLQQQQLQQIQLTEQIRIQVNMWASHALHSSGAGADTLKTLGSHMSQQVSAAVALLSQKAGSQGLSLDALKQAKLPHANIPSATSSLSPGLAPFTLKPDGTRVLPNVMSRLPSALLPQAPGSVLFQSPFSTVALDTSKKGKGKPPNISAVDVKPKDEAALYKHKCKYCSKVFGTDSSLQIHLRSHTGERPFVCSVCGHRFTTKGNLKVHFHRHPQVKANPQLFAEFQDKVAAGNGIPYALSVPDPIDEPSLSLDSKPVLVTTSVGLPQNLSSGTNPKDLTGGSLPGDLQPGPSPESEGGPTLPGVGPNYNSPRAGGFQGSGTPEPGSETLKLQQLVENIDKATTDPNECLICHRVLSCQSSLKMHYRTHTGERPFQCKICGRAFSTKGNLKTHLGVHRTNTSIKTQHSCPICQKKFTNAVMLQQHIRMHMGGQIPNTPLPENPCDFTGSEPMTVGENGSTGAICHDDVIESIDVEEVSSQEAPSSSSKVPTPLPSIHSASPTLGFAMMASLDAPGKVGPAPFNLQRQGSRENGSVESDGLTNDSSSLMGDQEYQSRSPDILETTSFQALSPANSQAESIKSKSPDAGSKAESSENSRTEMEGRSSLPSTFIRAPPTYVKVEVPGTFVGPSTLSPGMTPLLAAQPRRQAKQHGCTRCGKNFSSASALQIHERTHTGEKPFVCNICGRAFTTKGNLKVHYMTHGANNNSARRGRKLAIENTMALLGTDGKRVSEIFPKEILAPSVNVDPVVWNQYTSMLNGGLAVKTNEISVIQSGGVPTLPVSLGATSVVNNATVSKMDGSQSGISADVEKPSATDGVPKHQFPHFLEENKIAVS

Regarding `Cn1ccc2ccc(N3CCC(=O)NC3=O)cc21` [Example 59, 1-(1-Methyl-1H-indol-6-yl)dihydropyrimidine-2,4 (1H,3H)-dione], the 50% inhibitory concentration (IC50) (as a rule, the concentration that gives 50% inhibition) in test [1] is 329 nM. For the same molecule, the SALL4 degradation entry in test [2] was “no observable/meaningful SALL4 degradation”.

Molecule `CN1CCCc2ccc(N3CCC(=O)NC3=O)cc21` [Example 33, 1-(1-Methyl-1,2,3,4-tetrahydroquinolin-7-yl)dihydropyrimidine-2,4 (1H,3H)-dione] had an IC50 in test [1] of 762 nM. The SALL4 degradation result in test [2] is on record as “no observable/meaningful SALL4 degradation”. Moreover, the IKZF1 degradation result in test [3] is reported as “no observable/meaningful IKZF1 degradation”.

Molecule `O=C1CCN(c2ccc3cnoc3c2)C(=O)N1` [Example 39, 1-(Benzo[d]isoxazol-6-yl)dihydropyrimidine-2,4 (1H,3H)-dione] yielded an IC50 in test [1] of 82 nM. Besides, the IKZF1 degradation result in test [3] is given as “no observable/meaningful IKZF1 degradation”.

Take `Nc1cccc2c1CN(C1CCC(=O)NC1=O)C2=O` (centres unmarked) [lenalidomide, reference compound]: in test [3], the IKZF1 degradation entry is on record as “degradation of IKZF1 to an undetected level”.

In turn, `O=C1CCN(c2cnc3cc[nH]c3c2)C(=O)N1` [Example 40, 1-(1H-Pyrrolo[3,2-b]pyridin-6-yl)dihydropyrimidine-2,4 (1H,3H)-dione] gave an IC50 in test [1] of 186 nM. Besides, the IKZF1 degradation entry in test [3] is “no observable/meaningful IKZF1 degradation”.

`O=C1CCN(c2ccc3cc[nH]c3c2)C(=O)N1` [Example 55, 1-(1H-Indol-6-yl)dihydropyrimidine-2,4 (1H,3H)-dione] showed an IC50 in test [1] of 220 nM. The SALL4 degradation entry in test [2] is on record as “no observable/meaningful SALL4 degradation”. Besides, the IKZF1 degradation result in test [3] is “no observable/meaningful IKZF1 degradation”.

Regarding `O=C1CCC(N2C(=O)c3ccccc3C2=O)C(=O)N1` (centres unmarked) [thalidomide, reference compound], in test [2], the SALL4 degradation entry is recorded as “degradation of SALL4 to an undetected level”.

The molecule `O=C1CCN(c2cncc3[nH]ccc23)C(=O)N1` [Example 17, 1-(1H-Pyrrolo[2,3-c]pyridin-4-yl)dihydropyrimidine-2,4 (1H,3H)-dione] registered an IC50 in test [1] of 206 nM. Also, the IKZF1 degradation entry in test [3] was “no observable/meaningful IKZF1 degradation”.

`CN1CCc2ccc(N3CCC(=O)NC3=O)cc2C1` [Example 29, 1-(2-Methyl-1,2,3,4-tetrahydroisoquinolin-7-yl)dihydropyrimidine-2,4 (1H,3H)-dione]: in test [1], the IC50 worked out at 8010 nM.
